Like-named read-outs stand apart in the source and are kept apart here.
Assays:
STAT4 = molecular target: T1, STAT4 (Homo sapiens, UniProt Q14765); assay: Competitive fluorescence polarization (FP) assay, STAT4; format: binding
T1 sequence (Q14765 1-748): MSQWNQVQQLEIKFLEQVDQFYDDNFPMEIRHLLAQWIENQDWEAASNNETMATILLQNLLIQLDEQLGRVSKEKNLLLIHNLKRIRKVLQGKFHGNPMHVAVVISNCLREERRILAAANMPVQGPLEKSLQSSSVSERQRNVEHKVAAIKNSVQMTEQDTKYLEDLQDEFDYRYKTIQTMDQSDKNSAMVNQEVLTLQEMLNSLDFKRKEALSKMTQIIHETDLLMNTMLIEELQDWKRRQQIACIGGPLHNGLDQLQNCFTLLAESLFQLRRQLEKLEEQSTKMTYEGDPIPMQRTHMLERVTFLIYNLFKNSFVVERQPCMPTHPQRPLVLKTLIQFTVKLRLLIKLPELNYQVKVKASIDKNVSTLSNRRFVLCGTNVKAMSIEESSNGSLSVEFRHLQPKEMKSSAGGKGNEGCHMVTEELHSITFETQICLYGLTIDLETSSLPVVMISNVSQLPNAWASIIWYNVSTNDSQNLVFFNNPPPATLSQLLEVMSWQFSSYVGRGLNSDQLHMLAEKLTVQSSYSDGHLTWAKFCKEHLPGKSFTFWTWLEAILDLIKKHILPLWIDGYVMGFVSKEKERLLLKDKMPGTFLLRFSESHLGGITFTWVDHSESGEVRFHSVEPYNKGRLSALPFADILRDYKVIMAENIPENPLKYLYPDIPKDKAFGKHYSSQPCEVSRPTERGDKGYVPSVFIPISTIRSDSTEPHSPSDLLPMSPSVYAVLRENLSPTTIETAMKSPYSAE
Experimental: Screening of chemical libraries […]
PPADS was purchased […]
from Sigma-Aldrich, and iso-PPADS from Bio-Techne.
Fluorescence polarization assays
Competitive fluorescence polarization (FP) assays for STAT1,[2] STAT3,[3] STAT4,[4] STAT5a,[5] STAT5b[6] and STAT6[1] were performed as previously described. Briefly, peptide binding to proteins was analyzed using the following carboxyfluorescein (CF) -labelled pepti des at a concentration of 10 nM: STAT1: 5-CF-GpYDKPHVL-OH, STAT3: 5-CF-GpYLPQTV -NH2, STAT4: 5-CF-GpYLPQNID-OH, STAT5a and STAT5b: 5-CF-GpYLVLDKW-OH, STAT6: 5- […]
CFGp[…]-OH. Proteins were used at a final concentration representing the approximate Kd value for binding of the corresponding peptide to the protein, namely 65 nM for STAT1, 65 nM for STAT3, 35 nM for STAT4, 125 nM for STAT5a, 65 nM for STAT5b and 75 nM for STAT6. Assays were carried out in buffer containing 10 mM Tris/HCl, 50 mM NaCl, 1 mM EDTA, 0.1% NP-40 substitute and 2% DMSO, with 1 mM reducing agent where […]
applicable, at pH 8.0. […]
before adding peptide and incubating for a further 1 h. FP was measured using an Infinite F500 plate reader (Tecan) and measurements were converted into percent inhibition according to […]

[1] = test system: total STAT5 (STAT5a and STAT5b); assay: CETSA, total STAT5 in lysates from K562 cells; format: binding; conditions: K562 cell lysates, 100 μM
Experimental: One method by which binding of small molecules to their expected targets in cell lysates can be inferred is the cellular thermal shift assay (CETSA).^[ [23], [24] ^] This assay is based on the observation that reversible protein binding by a small molecule typically stabilizes the bound protein against thermal denaturation. […]
K562 cells (DSMZ) were cultured […]
in RPMI 1640 medium containing 10% FBS, 2 mM L-glutamine and penicillin/streptomycin. For whole-cell lysates, cells were harvested by centrifugation, washed once with ice-cold PBS and resuspended at 3 x 10^6 cells per 100 µl in TBS supplemented with EDTA-free Halt Protease Inhibitor Cocktail (Fisher Scientific). Cells were lysed using three freeze-thaw cycles using liquid nitrogen and a room-temperature water bath. […]
CETSA experiments were performed based on the published protocol.[8] […] The soluble fractions were analyzed by Western blotting.
Treated lysates were separated by SDS-PAGE on a 10% gel and transferred to nitrocellulose membrane using a TransBlot semi-dry blotting protocol (Bio-Rad Laboratories). Proteins of interest were detected using monoclonal rabbit primary antibodies (Cell Signaling), anti-rabbit-HRP-secondary antibody (Dako) and Pierce ECL Plus chemiluminescence reagent (Thermo Fisher). Bands were visualized using an ImageQuant system (GE Healthcare) and quantitated with ImageJ software (NIH).[9]

[2] = no reducing agent, 1 h, read-out: IC50 STAT4 (FP assay)

| SMILES | IC50 (STAT4; IC50 STAT4 (FP assay), 1 mM DTT, 1 hr) | IC50 (STAT4; IC50 STAT4 (FP assay), 1 mM DTT, 2 hr) | IC50 (STAT4; IC50 STAT4 (FP assay), 1 mM DTT, 3 hr) | IC50 (STAT4; IC50 STAT4 (FP assay), 1 mM DTT, 4 hr) | IC50 (STAT4; IC50 STAT4 (FP assay), 1 mM TCEP, 1 hr) | IC50 (STAT4; IC50 STAT4 (FP assay), 1 mM TCEP, 2 hr) | IC50 (STAT4; IC50 STAT4 (FP assay), 1 mM TCEP, 3 hr) | IC50 (STAT4; IC50 STAT4 (FP assay), 1 mM TCEP, 4 hr) | IC50 (STAT4; [2]) | IC50 (STAT4; no reducing agent, 2 hr, read-out: IC50 STAT4 (FP assay), no reducing agent) | IC50 (STAT4; no reducing agent, 3 hr, read-out: IC50 STAT4 (FP assay), no reducing agent) | IC50 (STAT4; no reducing agent, 4 hr, read-out: IC50 STAT4 (FP assay), no reducing agent) | ΔT agg of total STAT5 [1] | aggregation temperature of total STAT5 (T agg) ([1]; DMSO control 49.0 °C) |
| --- | --- | --- | --- | --- | --- | --- | --- | --- | --- | --- | --- | --- | --- | --- |
| Cc1nc(/N=N/c2ccc(S(=O)(=O)O)cc2S(=O)(=O)O)c(COP(=O)(O)O)c(C=O)c1O [PPADS, pyridoxalphosphate‐6‐azophenyl‐2',4'‐disulfonic acid] | 1700 ± 300 nM | 2500 ± 400 nM | 3700 ± 600 nM | 4900 ± 900 nM | 2400 ± 300 nM | 2400 ± 200 nM | 2500 ± 400 nM | 2800 ± 500 nM | 2200 ± 200 nM | 2400 ± 300 nM | 2600 ± 300 nM | 2400 ± 100 nM | 2.7 °C | 51.7 °C |
| Cc1nc(/N=N/c2cc(S(=O)(=O)O)ccc2S(=O)(=O)O)c(COP(=O)(O)O)c(C=O)c1O [iso‐PPADS] | – | – | – | – | – | – | – | – | 1900 ± 200 nM | – | – | – | – | – |

— PMC12442245, “Activity Analysis of the P2X Receptor Antagonist PPADS against Signal Transducer and Activator of Transcription Proteins” (Chembiochem, 2025)
